Results reported in the supplement of paper PMC10307832.

Assays:
Experiment in all cases: relative viability (nuclei count vs DMSO), 5 days (fraction); higher = more cells survive
[1] = compound: CC1=CC(=C(N1C2=CC=C(C=C2)Cl)C)C(=O)CN3CCCCC3 [IU1-47] + CC(=O)Nc1cccc(-n2c(=O)n(C3CC3)c(=O)c3c(Nc4ccc(I)cc4F)n(C)c(=O)c(C)c32)c1 [Trametinib] (partner 0.02 µM)
Outline: (§1)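 Relative viability was taken as the ratio of nuclei in treated wells to nuclei in vehicle wells. Lung cancer cell lines in 1536-well plates received compounds by pin tool one day after seeding, either one drug alone or a fixed anchor-drug dose plus five library-drug doses (not always all listed) in √10 steps. Nuclei were counted on 4× images after 5 days of treatment, and values are medians of duplicate plates.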

[2] = compound: CC1=CC(=C(N1C2=CC=C(C=C2)Cl)C)C(=O)CN3CCCCC3 [IU1-47] + CC(=O)c1c(C)c2cnc(Nc3ccc(N4CCNCC4)cn3)nc2n(C2CCCC2)c1=O [Palbociclib] (partner 0.5 µM)
Outline: as §1

[3] = compound: CC1=CC(=C(N1C2=CC=C(C=C2)Cl)C)C(=O)CN3CCCCC3 [IU1-47] + CC1(C)CCC(c2ccc(Cl)cc2)=C(CN2CCN(c3ccc(C(=O)NS(=O)(=O)c4ccc(N[C@H](CCN5CCOCC5)CSc5ccccc5)c(S(=O)(=O)C(F)(F)F)c4)cc3)CC2)C1 [Navitoclax] (partner 0.5 µM)
Outline: as §1

[4] = compound: CC1=CC(=C(N1C2=CC=C(C=C2)Cl)C)C(=O)CN3CCCCC3 [IU1-47] + C[C@]1(O)C[C@@H](c2nc(-c3ccc4ccc(-c5ccccc5)nc4c3)c3c(N)nccn32)C1 [Linsitinib] (partner 1 µM)
Outline: as §1

| Cell Line | relative viability ([1]; first compound 0.08 µM) | relative viability ([1]; first compound 0.253 µM) | relative viability ([1]; first compound 0.8 µM) | relative viability ([1]; first compound 2.53 µM) | relative viability ([1]; first compound 8 µM) | relative viability ([2]; first compound 0.08 µM) | relative viability ([2]; first compound 0.253 µM) | relative viability ([2]; first compound 0.8 µM) | relative viability ([2]; first compound 2.53 µM) | relative viability ([2]; first compound 8 µM) | relative viability ([3]; first compound 0.08 µM) | relative viability ([3]; first compound 0.253 µM) | relative viability ([3]; first compound 0.8 µM) | relative viability ([3]; first compound 2.53 µM) | relative viability ([3]; first compound 8 µM) | relative viability ([4]; first compound 0.08 µM) | relative viability ([4]; first compound 0.253 µM) | relative viability ([4]; first compound 0.8 µM) | relative viability ([4]; first compound 2.53 µM) | relative viability ([4]; first compound 8 µM) |
| --- | --- | --- | --- | --- | --- | --- | --- | --- | --- | --- | --- | --- | --- | --- | --- | --- | --- | --- | --- | --- |
| LU99A | 0.499 | 0.355 | 0.606 | 0.617 | 0.543 | 0.373 | 0.43 | 0.399 | 0.496 | 0.372 | 0.824 | 0.815 | 0.974 | 0.937 | 0.75 | 0.538 | 0.511 | 0.656 | 0.602 | 0.54 |
| LXF-289 | 0.689 | 0.726 | 0.645 | 0.68 | 0.668 | 0.634 | 0.679 | 0.603 | 0.58 | 0.619 | 0.993 | 1 | 0.985 | 0.92 | 0.975 | 0.984 | 0.998 | 1.02 | 0.954 | 0.954 |
| NCI-H23 | 0.5 |  | 0.305 | 0.35 | 0.38 | 0.532 |  | 0.431 | 0.511 | 0.499 | 0.791 | 0.903 | 0.987 | 0.925 | 0.716 | 0.607 | 0.741 | 0.686 | 0.665 | 0.533 |
| NCI-H322M | 0.547 | 0.487 | 0.503 | 0.464 | 0.55 | 0.489 | 0.551 | 0.487 | 0.537 | 0.494 | 1.31 | 1.21 | 1.1 | 1.27 | 1.23 | 1 | 0.88 | 1.03 | 0.927 | 0.887 |
| NCI-H441 | 0.37 | 0.338 | 0.395 | 0.595 | 0.439 | 0.265 | 0.243 | 0.206 | 0.204 | 0.188 | 0.574 | 0.497 | 0.655 | 0.684 | 0.548 | 0.703 | 0.49 | 0.594 | 0.438 | 0.44 |
| NCI-H460 | 0.134 | 0.127 | 0.2 | 0.129 | 0.18 | 0.24 | 0.123 | 0.16 | 0.153 | 0.105 | 1.3 | 1.08 | 1.36 | 1.02 | 1.38 | 1.21 | 1.1 | 0.986 | 0.665 | 0.559 |
| NCI-H520 | 0.661 | 0.671 | 0.821 | 0.456 | 0.633 | 0.218 | 0.227 | 0.223 | 0.204 | 0.237 | 1.22 | 1.12 | 1.26 | 1.02 | 0.981 | 0.849 | 1.13 | 0.934 | 0.974 | 0.666 |
| NCI-H647 | 0.459 | 0.432 | 0.489 | 0.405 | 0.443 | 0.38 | 0.416 | 0.416 | 0.419 | 0.42 | 1.31 | 1.3 | 1.19 | 1.26 | 1.04 | 1.22 | 1.2 | 1.12 | 1.19 | 1.01 |
